From US10543212B2, “Substituted amines for treating cardiac diseases” (Cardurion Pharmaceuticals, LLC, priority 2017, dated 2020)

Each compound was assayed against T1, Full-length, GST-tagged, human CaMKIIδ (Homo sapiens, UniProt Q13557) (assay: CaMKIIδ binding assay (TR-FRET with BODIPY-labeled probe ligand)). Details: CaMKIIδ binding assay, results of Table 2.
T1 construct: Full-Length, Glutathione-S-Transferase(GST)-Tagged, Human CaMKIIδ was purchased from Carna Biosciences; purchased Carna Biosciences 02-111
T1 sequence (Q13557 1-478 isoform Q13557-12): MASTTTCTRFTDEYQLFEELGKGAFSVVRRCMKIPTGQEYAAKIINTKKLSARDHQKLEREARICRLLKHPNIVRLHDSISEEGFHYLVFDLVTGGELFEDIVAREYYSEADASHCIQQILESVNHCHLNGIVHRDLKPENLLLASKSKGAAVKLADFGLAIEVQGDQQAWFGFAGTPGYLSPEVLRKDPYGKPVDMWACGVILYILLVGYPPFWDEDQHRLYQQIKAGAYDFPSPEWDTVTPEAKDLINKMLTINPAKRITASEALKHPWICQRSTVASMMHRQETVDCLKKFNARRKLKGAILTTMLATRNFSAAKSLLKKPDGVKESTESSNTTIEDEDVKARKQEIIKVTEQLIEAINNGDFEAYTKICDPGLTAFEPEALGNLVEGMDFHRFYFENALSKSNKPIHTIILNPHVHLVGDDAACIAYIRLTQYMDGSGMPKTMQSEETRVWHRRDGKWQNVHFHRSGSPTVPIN
Outline: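 TR-FRET probe-displacement binding: 0.5 nM GST-CaMKIIδ with 10 μg/mL calmodulin, 1 mM CaCl2, 0.21 nM Tb-anti-GST Ab and 300 nM BODIPY probe in HEPES pH 7.6 buffer. Eight-point 4-fold dilutions, 1 hr at room temperature. IC50 from logistic fit; 100% inhibition defined by 3 μM parent compound.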

**Q.** `COc1cc2c(cc1Nc1ncc(-c3ccc(C#N)c(O[C@@H](C)Cn4cnnn4)c3)cn1)CCN(C(=O)C(F)(F)F)C2` [Example 458, (S)-2-((1-(1H-tetrazol-1-yl)propan-2-yl)oxy)-4-(2-((7-methoxy-2-(2,2,2-trifluoroacetyl)-1,2,3,4-tetrahydroisoquinolin-6-yl)amino)pyrimidin-5-yl)benzonitrile] was tested. Which IC50 did it give?
**A.** The IC50 was 10 to 100 nM.

**Q.** For `COc1cc2c(cc1Nc1ncc(-c3ccc(Cl)c(O[C@@H](C)Cn4cnnn4)c3)cn1)CN(CC1COC1)CC2` [Example 499, (S)-N-(5-(3-((1-(1H-tetrazol-1-yl)propan-2-yl)oxy)-4-chlorophenyl)pyrimidin-2-yl)-6-methoxy-2-(oxetan-3-ylmethyl)-1,2,3,4-tetrahydroisoquinolin-7-amine], which IC50 is on record?
**A.** Its IC50 is less than 10 nM.

**Q.** Which IC50 does the source give for `C[C@@H](Cn1cnnn1)Oc1cc(-c2cnc(Nc3cn(C4CCN(CCC(C)(C)C)CC4)nc3C(F)(F)F)nc2)ccc1Cl` [Example 547, (S)-5-(3-((1-(1H-tetrazol-1-yl)propan-2-yl)oxy)-4-chlorophenyl)-N-(1-(1-(3,3-dimethylbutyl)piperidin-4-yl)-3-(trifluoromethyl)-1H-pyrazol-4-yl)pyrimidin-2-amine] here?
**A.** Its IC50 is less than 10 nM.

**Q.** `COC1CCC(N2CCC(n3cc(Nc4ncc(-c5ccc(Cl)c(OC(C)Cn6cnnn6)c5)cn4)c(C(F)(F)F)n3)CC2)CC1` (single isomer, unassigned; less polar) [Example 568, (S)-5-(3-((1-(1H-tetrazol-1-yl)propan-2-yl)oxy)-4-chlorophenyl)-N-(1-(1-(cis or trans-4-methoxycyclohexyl)piperidin-4-yl)-3-(trifluoromethyl)-1H-pyrazol-4-yl)pyrimidin-2-amine, less polar] was tested. Which IC50 did it give?
**A.** Its IC50 is less than 10 nM.

**Q.** `COc1cc2c(cc1Nc1ncc(-c3ccc(Cl)c(O[C@@H](C)Cn4cnnn4)c3)cn1)N(C(C)=O)CC2` [Example 466, (S)-1-(6-((5-(3-((1-(1H-tetrazol-1-yl)propan-2-yl)oxy)-4-chlorophenyl)pyrimidin-2-yl)amino)-5-methoxyindolin-1-yl)ethan-1-one] was tested. Which IC50 did it give?
**A.** Its IC50 is 10 to 100 nM.

**Q.** Which IC50 does the source give for `COc1cnc(N2CCCC(N3CCOCC3)C2)cc1Nc1ncc(-c2ccc(Cl)c(O[C@@H](C)Cn3cnnn3)c2)cn1` (stereo partly drawn) [Example 457, 5-(3-(((S)-1-(1H-tetrazol-1-yl)propan-2-yl)oxy)-4-chlorophenyl)-N-(5-methoxy-2-(3-morpholinopiperidin-1-yl)pyridin-4-yl)pyrimidin-2-amine] here?
**A.** Its IC50 is 10 to 100 nM.

**Q.** `C[C@@H](Cn1cnnn1)Oc1cc(-c2cnc(Nc3cn(C4CCN(Cc5cc[nH]n5)CC4)nc3C(F)(F)F)nc2)ccc1Cl` [Example 561, (S)-N-(1-(1-((1H-pyrazol-3-yl)methyl)piperidin-4-yl)-3-(trifluoromethyl)-1H-pyrazol-4-yl)-5-(3-((1-(1H-tetrazol-1-yl)propan-2-yl)oxy)-4-chlorophenyl)pyrimidin-2-amine] was tested. Which IC50 did it give?
**A.** The IC50 was less than 10 nM.

**Q.** How did the IC50 turn out when `COc1cc(C2=CCN(C3COC3)CC2)c(C)cc1Nc1ncc(-c2ccc(C#N)c(O[C@@H](C)Cn3cnnn3)c2)cn1` [Example 530, (S)-2-((1-(1H-tetrazol-1-yl)propan-2-yl)oxy)-4-(2-((2-methoxy-5-methyl-4-(1-(oxetan-3-yl)-1,2,3,6-tetrahydropyridin-4-yl)phenyl)amino)pyrimidin-5-yl)benzonitrile] was run?
**A.** Its IC50 is less than 10 nM.

**Q.** With `COC(=O)c1ccc(OC)c(Nc2ncc(-c3ccc(Cl)c(O[C@@H](C)Cn4cnnn4)c3)cn2)c1` [Example 526, methyl (S)-3-((5-(3-((1-(1H-tetrazol-1-yl)propan-2-yl)oxy)-4-chlorophenyl)pyrimidin-2-yl)amino)-4-methoxybenzoate] as the compound, how does the IC50 read?
**A.** The IC50 was 10 to 100 nM.

**Q.** Which IC50 does the source give for `CCN(C)CC(=O)N1CCc2cc(Nc3ncc(-c4ccc(Cl)c(O[C@@H](C)Cn5cnnn5)c4)cn3)c(OC)cc2C1` [Example 514, (S)-1-(6-((5-(3-((1-(1H-tetrazol-1-yl)propan-2-yl)oxy)-4-chlorophenyl)pyrimidin-2-yl)amino)-7-methoxy-3,4-dihydroisoquinolin-2(1H)-yl)-2-(ethyl(methyl)amino)ethan-1-one] here?
**A.** Its IC50 is less than 10 nM.

**Q.** With `COc1cc2c(cc1Nc1ncc(-c3ccc(Cl)c(O[C@@H](C)Cn4cnnn4)c3)cn1)CN(C(=O)C(C)(C)OC(C)=O)CC2` [Example 520, (S)-1-(7-((5-(3-((1-(1H-tetrazol-1-yl)propan-2-yl)oxy)-4-chlorophenyl)pyrimidin-2-yl)amino)-6-methoxy-3,4-dihydroisoquinolin-2(1H)-yl)-2-methyl-1-oxopropan-2-yl acetate] as the compound, how does the IC50 read?
**A.** The IC50 was no less than 100 nM.

**Q.** `Cc1ccc(N2CCC(N3CCOCC3)CC2)cc1Nc1ncc(-c2ccc(Cl)c(O[C@@H](C)Cn3cnnn3)c2)cn1` [Example 491] was tested. Which IC50 did it give?
**A.** Its IC50 is less than 10 nM.

**Q.** With `Cc1ncc(N2CCC(N3CCOCC3)CC2)cc1Nc1ncc(-c2ccc(Cl)c(O[C@@H](C)Cn3cnnn3)c2)cn1` [Example 462, (S)-5-(3-((1-(1H-tetrazol-1-yl)propan-2-yl)oxy)-4-chlorophenyl)-N-(2-methyl-5-(4-morpholinopiperidin-1-yl)pyridin-3-yl)pyrimidin-2-amine] as the compound, how does the IC50 read?
**A.** The IC50 was less than 10 nM.

Same assay, conditions: CaMKIIδ binding assay; activity class per Table 2

**Q.** `C[C@@H](Cn1cnnn1)Oc1cc(-c2cnc(Nc3cn(C4CC5(C4)CN(CCC(F)(F)F)C5)nc3OCC(F)(F)F)nc2)ccc1Cl` [Example 998, (S)-5-(3-((1-(1H-tetrazol-1-yl)propan-2-yl)oxy)-4-chlorophenyl)-N-(3-(2,2,2-trifluoroethoxy)-1-(2-(3,3,3-trifluoropropyl)-2-azaspiro[3.3]heptan-6-yl)-1H-pyrazol-4-yl)pyrimidin-2-amine] was tested. Which IC50 did it give?
**A.** The IC50 was less than 10 nM.

**Q.** `CC(C)c1nn(C2CC3(C2)CN(C2COC2)C3)cc1Nc1ncc(-c2ccc(Cl)c(O[C@@H](C)Cn3cnnn3)c2)cn1` [Example 935, (S)-5-(3-((1-(1H-tetrazol-1-yl)propan-2-yl)oxy)-4-chlorophenyl)-N-(3-isopropyl-1-(2-(oxetan-3-yl)-2-azaspiro[3.3]heptan-6-yl)-1H-pyrazol-4-yl)pyrimidin-2-amine] was tested. Which IC50 did it give?
**A.** Its IC50 is less than 10 nM.

Same assay, conditions: Table 2; CaMKIIδ binding assay, activity given as class A/B/C

**Q.** For `C[C@@H](Cn1cnnn1)Oc1cc(-c2cnc(Nc3cc(C(C)(C)C)nn3C)nc2)ccc1Cl` [Example 740, (S)-5-(3-((1-(1H-tetrazol-1-yl)propan-2-yl)oxy)-4-chlorophenyl)-N-(3-(tert-butyl)-1-methyl-1H-pyrazol-5-yl)pyrimidin-2-amine], which IC50 is on record?
**A.** Its IC50 is no less than 100 nM.

**Q.** With `C[C@@H](Cn1cnnn1)Oc1cc(-c2cnc(Nc3cn([C@H]4CC[C@H](N5CC6(COC6)C5)CC4)nc3OCC(F)F)nc2)ccc1Cl` [Example 827, 5-(3-(((S)-1-(1H-tetrazol-1-yl)propan-2-yl)oxy)-4-chlorophenyl)-N-(1-(trans-4-(2-oxa-6-azaspiro[3.3]heptan-6-yl)cyclohexyl)-3-(2,2-difluoroethoxy)-1H-pyrazol-4-yl)pyrimidin-2-amine] as the compound, how does the IC50 read?
**A.** Its IC50 is less than 10 nM.

**Q.** `CCn1cc(Nc2ncc(-c3ccc(Cl)c(O[C@@H](C)Cn4cnnn4)c3)cn2)c(C(=O)O)n1` [Example 876, (S)-4-((5-(3-((1-(1H-tetrazol-1-yl)propan-2-yl)oxy)-4-chlorophenyl)pyrimidin-2-yl)amino)-1-ethyl-1H-pyrazole-3-carboxylic acid] was tested. Which IC50 did it give?
**A.** The IC50 was 10 to 100 nM.

**Q.** For `CCn1ncc(Nc2ncc(-c3ccc(Cl)c(O[C@@H](C)Cn4cnnn4)c3)cn2)c1C(=O)N1CCOCC1` [Example 865, (S)-(4-((5-(3-((1-(1H-tetrazol-1-yl)propan-2-yl)oxy)-4-chlorophenyl)pyrimidin-2-yl)amino)-1-ethyl-1H-pyrazol-5-yl)(morpholino)methanone], which IC50 is on record?
**A.** The IC50 was no less than 100 nM.

Same assay, conditions: Table 2; activity class for CaMKIIδ

**Q.** With `COc1cc2c(cc1Nc1ncc(-c3ccc(Cl)c(O[C@@H](C)Cn4cnnn4)c3)cn1)N(C(=O)C(F)(F)F)CCC2` [Example 586, (S)-1-(7-((5-(3-((1-(1H-tetrazol-1-yl)propan-2-yl)oxy)-4-chlorophenyl)pyrimidin-2-yl)amino)-6-methoxy-3,4-dihydroquinolin-1(2H)-yl)-2,2,2-trifluoroethan-1-one] as the compound, how does the IC50 read?
**A.** The IC50 was no less than 100 nM.

**Q.** `COc1cc(N2CCOC(CN(C)C)C2)ccc1Nc1ncc(-c2ccc(Cl)c(O[C@@H](C)Cn3cnnn3)c2)cn1` (stereo partly drawn) [Example 615, 5-(3-(((S)-1-(1H-tetrazol-1-yl)propan-2-yl)oxy)-4-chlorophenyl)-N-(4-(2-((dimethylamino)methyl)morpholino)-2-methoxyphenyl)pyrimidin-2-amine] was tested. Which IC50 did it give?
**A.** The IC50 was less than 10 nM.

**Q.** How did the IC50 turn out when `C[C@@H](Cn1cnnn1)Oc1cc(-c2cnc(Nc3cn(Cc4ccccn4)nc3C(F)(F)F)nc2)ccc1Cl` [Example 707, (S)-5-(3-((1-(1H-tetrazol-1-yl)propan-2-yl)oxy)-4-chlorophenyl)-N-(1-(pyridin-2-ylmethyl)-3-(trifluoromethyl)-1H-pyrazol-4-yl)pyrimidin-2-amine] was run?
**A.** The IC50 was 10 to 100 nM.

**Q.** With `C[C@@H](Cn1cnnn1)Oc1cc(-c2cnc(Nc3ccn(Cc4ccccc4)n3)nc2)ccc1Cl` [Example 714, (S)-5-(3-((1-(1H-tetrazol-1-yl)propan-2-yl)oxy)-4-chlorophenyl)-N-(1-benzyl-1H-pyrazol-3-yl)pyrimidin-2-amine] as the compound, how does the IC50 read?
**A.** The IC50 was 10 to 100 nM.

**Q.** Which IC50 does the source give for `COc1nn(C2CCN(C3CCOCC3)CC2)cc1Nc1ncc(-c2ccc(Cl)c(O[C@@H](C)Cn3cnnn3)c2)cn1` [Example 662, (S)-5-(3-((1-(1H-tetrazol-1-yl)propan-2-yl)oxy)-4-chlorophenyl)-N-(3-methoxy-1-(1-(tetrahydro-2H-pyran-4-yl)piperidin-4-yl)-1H-pyrazol-4-yl)pyrimidin-2-amine] here?
**A.** The IC50 was less than 10 nM.

**Q.** Which IC50 does the source give for `C[C@@H](Cn1cnnn1)Oc1cc(-c2cnc(Nc3cn(Cc4ccncc4)nc3C(F)(F)F)nc2)ccc1Cl` [Example 709, (S)-5-(3-((1-(1H-tetrazol-1-yl)propan-2-yl)oxy)-4-chlorophenyl)-N-(1-(pyridin-4-ylmethyl)-3-(trifluoromethyl)-1H-pyrazol-4-yl)pyrimidin-2-amine] here?
**A.** The IC50 was 10 to 100 nM.
